Test results published in patent US20240182475A1 (Université de Lausanne, priority 2021, published 2024).

How the values were obtained:
[1] = system: primary human chondrocytes; test: Primary human chondrocyte calcification (Alizarin red); format: cell-based; conditions: secondary CPP 24 h, 50 uM
Method: (a) WT and Cse-deficient chondrocytes were incubated with a CSE activator (SU004, 50 μM) previously identified by high-through put screen, or with the equivalent volume of DMSO (0.1%) for 24 hours in calcification medium. STS 25 mM was used as a positive control for calcification inhibition. Calcium-containing crystals were stained with Alizarin red and quantified. (b) Cytotoxicity was assessed by LDH measurement and expressed as % over 100% cytotoxicity. (c) IL-6 secretion was measured by ELISA in supernatant of WT chondrocytes incubated with SU004 50 μM or STS 25 mM for 24 hours in calcification medium. (d) Primary human chondrocytes from 3 OA patients (P1, P2, P3) were incubated with SU004 50 μM, or with the equivalent volume of DMSO (0.1%) for 24 hours in calcification medium. Calcium-containing crystals were stained with Alizarin red and quantified. (e) Cytotoxicity was assessed by LDH measurement and expressed as % over 100% cytotoxicity. (f) IL-6 secretion was measured by ELISA in supernatant of human chondrocytes incubated for 24 hours with SU004 50 μM in calcification medium. *p<0.05, ** p<0.01, ****p<0.0001.
1. Alizarin red staining of primary human chondrocytes stimulated with secondary CPP for 24 h in DMEM+10% FBS and treated or not with 50 uM of compounds.
Chondrocytes were isolated from cartilage pieces incubated overnight in the digestion enzyme Liberase™ (Roche). […]

recombinant human CSE = recombinant human CSE (Homo sapiens, UniProt P32929); test: CSE activity (AzMC probe assay), H2S production by recombinant human CSE; format: biochemical; conditions: for CSE production of H2S (AzMC fluorescence, kinetic 2 h): 50 uM, 2 μg rCSE, 10 mM L-cysteine, 5 uM PLP, Tris-HCl pH 8, vs vehicle
Chain of recombinant human CSE (P32929 whole entry): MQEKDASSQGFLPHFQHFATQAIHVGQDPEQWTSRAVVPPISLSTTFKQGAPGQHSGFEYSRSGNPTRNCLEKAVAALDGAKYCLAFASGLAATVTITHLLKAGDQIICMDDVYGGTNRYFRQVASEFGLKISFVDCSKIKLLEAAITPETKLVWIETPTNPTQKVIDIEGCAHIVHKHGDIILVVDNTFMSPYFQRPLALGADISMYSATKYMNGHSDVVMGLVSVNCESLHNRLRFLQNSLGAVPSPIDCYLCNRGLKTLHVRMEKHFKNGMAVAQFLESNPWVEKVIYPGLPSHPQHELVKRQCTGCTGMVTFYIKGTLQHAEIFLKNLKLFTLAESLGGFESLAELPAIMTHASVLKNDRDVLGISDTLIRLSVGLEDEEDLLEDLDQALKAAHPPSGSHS
Method: The activity of recombinant human CSE (rCSE) was tested in the presence of C5, compound 8 (50 uM), Z20 compound 13 (50 uM) or vehicle (DMSO). Briefly, compounds were added in reaction buffer (50 mM Tris-HCl, pH 8) containing 2 μg of rCSE, 10 mM CSE substrate L-cysteine, 5 uM pyridoxal 5′-phosphate (PLP). After addition of 10 μM of the H2S sensitive fluorescent probe 7-azido-4-methylcoumarin (AzMC) in a total volume of 100 μl, fluorescence was immediately measured in kinetic mode for 2 h at 37° C. with SpectraMax M5 reader, with excitation and emission wavelengths of 365 nm and 450 nm, respectively. Statistical analysis was determined using simple linear regression with p<0.0001 for C5 vs. vehicle and p<0.0002 for Z20 vs. vehicle.
Recombinant human CSE (1 μg/well) was incubated with various concentrations of compounds (all in final 0.1% DMSO), or with 0.1% DMSO as a control, in 10 mM sodium phosphate buffer pH 8.2. Next, 10 mM L-cysteine and 1 mM PLP and 10 μM of the probe AzMC were then added to reach 100 μL total volume. Fluorescence was measured for 3 h at 37° C. with excitation and emission wavelengths of 365 nm and 450 nm, respectively, in a 96-well half area black plate with transparent bottom.
Dose-response curve of each compound was performed, using triplicate wells for each tested doses. The background (10 mM sodium phosphate buffer with L-cysteine, PLP and AzMC) was subtracted from all values. Each mean value was converted to percent activity (0% defined as the smallest mean in each data set, 100% defined as the highest mean in each data set). The data were normalized using the four parameter logistic model (4PL) equation to calculate EC50 using GraphPad Prism.

MOVAS cells = test: MOVAS cell calcification assay (Alizarin red); format: cell-based, mouse; conditions: for Mineralization (Alizarin red): 50 uM
Method: A) Alizarin red staining of MOVAS cells stimulated with sCPP for 24 h in DMEM+10% FBS and treated or not with 50 uM of compounds. […] Statistical analysis was determined using one-way ANOVA with ***p<0.001. C) Percentage of cytotoxicity (LDH %) in MOVAS treated or not with compounds for 24 h. D) MOVAS cells were seeded onto half-area 96-well plate and incubated overnight. Then C5 or C6 at 50 uM or vehicle (DMSO), L-cysteine at 10 mM, PLP at 5 uM and the H2S sensitive fluorescent probe AzMC at 10 μM were added. The fluorescence was immediately measured in kinetic mode for 2 h at 37° C. with SpectraMax M5 reader, with excitation and emission wavelengths of 365 nm and 450 nm, respectively.
A) Alizarin red staining of Movas cells stimulated with sCPP for 24 h in DMEM+10% FBS and treated or not with 50 uM of Z20. […] C) Percentage of cytotoxicity (LDH %) in murine chondrocytes treated or not with Z20 for 24 h. Statistical analysis was determined using one-way ANOVA with ***p<0.001.
Alizarin red staining of MOVAS cells stimulated with sCPP for 24 h in DMEM+10% FBS and treated or not with different concentrations of compounds (A: C6) and (B: Z20). The graphs show Alizarin red absorbance at 570-630 nm. Statistical analysis was determined using one-way ANOVA with *p<0.05, **p<0.01, ***p<0.001.
CPP were generated by preparing 20 ml DMEM containing 10% FBS, 1 mmol/L CaCl2, 3.5 mmol/L inorganic phosphate (1.36 mmol/L NaH2PO4 and 2.14 mmol/L Na2HPO4) (Aghagolzadeh et al. Atherosclerosis, 2016). After 7 days incubation at 37° C., the suspension was centrifuged at 25000 g for 2 h at 4° C., and the pellet containing CPP was resuspended in 1 ml DMEM and stored at −20° C. until further use.
Mouse vascular smooth muscle cell line (MOVAS) cells were cultured according to the manufacturer's guidelines in DMEM culture medium supplemented with 10% FBS. Cells were cultured at 37° C. in a humidified atmosphere with 5% CO2. All cell culture experiments in 96-well plates were performed in triplicates and were repeated independently two times.
For calcification experiments, cells were seeded in 96-well plates at a density of 50,000 cells/well and left to attach for 18 h. Calcification of cell monolayers was induced by CPP (equivalent to 50 μg Ca/mL) for 24 h at 37° C., 5% CO2 in presence of various concentrations of compounds (all in final 0.1% DMSO), or of 0.1% DMSO as a control, to reach a final volume of 200 μl/well. Calcium deposition was assessed by 0.5% w/v Alizarin Red staining (pH 4.2). Briefly, after PBS washing, methanol fixation for 10 min at 4° C., and milli-Q water washing, cells were incubated for 60 min with 200 μL Alizarin Red solution and then washed four times with milli-Q water. Quantification was performed after crystal dissolution with cetylpyridinium chloride (10%) for 18 h. The absorbance was measured at 570 and 630 nm using the Spectramax M5e reader (Molecular Devices). The background (alizarin red staining obtained with cells in the absence of CPP) was subtracted from all values.

CSE production of H2S (AzMC fluorescence, kinetic 2 h) (recombinant human CSE) | EC50 (recombinant human CSE; EC50 calculated by the four-parameter logistic model) [nM] | Compound | Mineralization (Alizarin red) [1] | Mineralization (Alizarin red) (MOVAS cells; sCPP 24 h) | Mineralization (Alizarin red absorbance 570-630 nm) (MOVAS cells; sCPP 24 h, different concentrations) | inhibition at 2 µM (MOVAS cells; Mus musculus, MOVAS, at 2 uM, read-out: Calcification assay Max calcification inhibition (%) at the indicated dose of compound) [%]
augments CSE production of H2S | – | CCn1cnc2c(Nc3cnn(CC4CCCO4)c3)ncnc21 (stereo not drawn) [Compound 13] | inhibit primary human chondrocyte mineralization | inhibits MOVAS cells mineralization | Dose-dependent effect | –
augments CSE production of H2S | 68.6 | Cn1ncc2c(Nc3cnn(CC4CCCO4)c3)ncnc21 (stereo not drawn) [Compound 8, N-{1-methyl-1H-pyrazolo[3,4-d]pyrimidin-4-yl}-1-[(oxolan-2-yl)methyl]-1H-pyrazol-4-amine] | inhibit primary human chondrocyte mineralization | inhibit murine vascular smooth muscle cells (MOVAS cells) mineralization | – | 38
